Data reported in patent publication US10294234B2, “HIV inhibitor compounds” (priority 2017, dated 2019).
pEC50: −log10 of the molar value. Like-named read-outs stand apart in the source and are kept apart here.

How the values were obtained:
[1] = test system: HIV-1 (IIIB) in MT-4 cells; experiment: MT-4 HIV assay; assay type: cell-based; settings: Human immunodeficiency virus 1, MT4, 120 h
Outline: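 Antiviral activity was read by Cell Titer Glo after a 5-day, 37 °C culture of MT-4 cells pre-infected with a 1:250 dilution of HIV-1 (IIIB). Compounds were tested as threefold dilution series in complete RPMI. Controls were no drug, mock infection and 5 uM AZT.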

[2] = Outline: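 Depletion measured by LC/MS/MS at 2, 12, 25, 45 and 65 minutes after 1 uM compound was added to liver microsomes (0.5 mg/mL; dog, rat, human) with NADPH-regenerating cofactor, in duplicate. In vitro t1/2 converted to Clint.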
[3] = HIV-1 (IIIB), MT-4 cells, 5 days, Cell Titer Glo, read-out: EC50

Compound | pEC50 [1, 3] | Human Pred Cl. ([2]; human, microsomes) [L/H/kg] | Rat. Pred. Cl. ([2]; rat, microsomes) [L/H/kg] | pEC50 [1] | Human Pred Cl. ([2]; human liver microsomes 0.5 mg/mL, 1 uM compound, NADPH) [L/H/kg] | Rat. Pred. Cl. ([2]; rat liver microsomes 0.5 mg/mL, 1 uM compound, NADPH) [L/H/kg]
COC(=O)N[C@H](C(=O)N[C@@H](Cc1ccc(C#Cc2ccc(N3CC4CCC(C3)N4C3COC3)nc2)cc1)[C@@H](O)CN(Cc1c(F)cc(-c2nnc(C)o2)cc1F)NC(=O)[C@@H](NC(=O)OC)C(C)(C)C(F)(F)F)C(C)(C)C(F)(F)F [Example 11, Methyl ((5S,8S,9S,14S)-11-(2,6-difluoro-4-(5-methyl-1,3,4-oxadiazol-2-yl)benzyl)-16,16,16-trifluoro-9-hydroxy-15,15-dimethyl-8-(4-((6-(8-(oxetan-3-yl)-3,8-diazabicyclo[3.2.1]octan-3-yl)pyridin-3-yl)ethynyl)benzyl)-3,6,13-trioxo-5-(1,1,1-trifluoro-2-methylpropan-2-yl)-2-oxa-4,7,11,12-tetraazahexadecan-14-yl)carbamate] | 8.43 | 0.18 | 0.18 | – | – | –
CCN1C2CCC1CN(c1ccc(C#Cc3ccc(C[C@H](NC(=O)[C@@H](NC(=O)OC)C(C)(C)C(F)(F)F)[C@@H](O)CN(Cc4c(F)cc(-c5cnn(C(F)F)c5)cc4F)NC(=O)[C@@H](NC(=O)OC)C(C)(C)C(F)(F)F)cc3)cn1)C2 [Example 167, Methyl ((5S,8S,9S,14S)-11-(4-(1-(difluoromethyl)-1H-pyrazol-4-yl)-2,6-difluorobenzyl)-8-(4-((6-(8-ethyl-3,8-diazabicyclo[3.2.1]octan-3-yl)pyridin-3-yl)ethynyl)benzyl)-16,16,16-trifluoro-9-hydroxy-15,15-dimethyl-3,6,13-trioxo-5-(1,1,1-trifluoro-2-methylpropan-2-yl)-2-oxa-4,7,11,12-tetraazahexadecan-14-yl)carbamate] | 8.30 | <0.11 | – | – | – | –
COC(=O)N[C@H](C(=O)NN(Cc1c(F)cc(-c2ccn(CC(F)F)n2)cc1F)C[C@H](O)[C@H](Cc1ccc(C#Cc2ccc(N3CC4CCC(C3)N4C3COC3)nc2)cc1)NC(=O)[C@@H](NC(=O)OC)C(C)(C)C(F)(F)F)C(C)(C)C [Example 6, methyl ((5S,8S,9S,14S)-11-(4-(1-(2,2-difluoroethyl)-1H-pyrazol-3-yl)-2,6-difluorobenzyl)-9-hydroxy-15,15-dimethyl-8-(4-((6-(8-(oxetan-3-yl)-3,8-diazabicyclo[3.2.1]octan-3-yl)pyridin-3-yl)ethynyl)benzyl)-3,6,13-trioxo-5-(1,1,1-trifluoro-2-methylpropan-2-yl)-2-oxa-4,7,11,12-tetraazahexadecan-14-yl)carbamate] | 8.45 | <0.11 | 0.22 | – | – | –
COC(=O)N[C@H](C(=O)N[C@@H](Cc1ccc(C#Cc2ccc(N3CC4CCC(C3)N4C3COC3)nc2)cc1)[C@@H](O)CN(Cc1ccc(-c2ccn(C(F)F)n2)cc1)NC(=O)[C@@H](NC(=O)OC)C(C)(C)C(F)(F)F)C(C)(C)C(F)(F)F [Example 158, Methyl ((5S,8S,9S,14S)-11-(4-(1-(difluoromethyl)-1H-pyrazol-3-yl)benzyl)-16,16,16-trifluoro-9-hydroxy-15,15-dimethyl-8-(4-((6-(8-(oxetan-3-yl)-3,8-diazabicyclo[3.2.1]octan-3-yl)pyridin-3-yl)ethynyl)benzyl)-3,6,13-trioxo-5-(1,1,1-trifluoro-2-methylpropan-2-yl)-2-oxa-4,7,11,12-tetraazahexadecan-14-yl)carbamate] | 8.36 | <0.11 | 0.22 | – | – | –
CCC(=O)N[C@H](C(=O)NN(Cc1c(F)cc(-c2ccn(C(F)F)n2)cc1F)C[C@H](O)[C@H](Cc1ccc(C#Cc2ccc(N3CC4CCC(C3)N4C3COC3)nc2)cc1)NC(=O)[C@@H](NC(=O)OC)C(C)(C)C(F)(F)F)C(C)(C)C [Example 185, Methyl ((2S)-1-(((2S,3S)-4-(1-(4-(1-(difluoromethyl)-1H-pyrazol-3-yl)-2,6-difluorobenzyl)-2-((S)-3,3-dimethyl-2-propionamidobutanoyl)hydrazinyl)-3-hydroxy-1-(4-((6-(8-(oxetan-3-yl)-3,8-diazabicyclo[3.2.1]octan-3-yl)pyridin-3-yl)ethynyl)phenyl)butan-2-yl)amino)-4,4,4-trifluoro-3,3-dimethyl-1-oxobutan-2-yl)carbamate] | 8.59 | 0.32 | 0.31 | – | – | –
COC(=O)N[C@H](C(=O)N[C@@H](Cc1ccc(C#Cc2cnc(N3CC4CCC(C3)N4C3COC3)nc2)cc1)[C@@H](O)CN(Cc1c(F)cc(-c2cnc(N3CC4CCC(C3)N4C3COC3)nc2)cc1F)NC(=O)[C@@H](NC(=O)OC)C(C)(C)C(F)(F)F)C(C)(C)C(F)(F)F [Example 120, Methyl ((5S,8S,9S,14S)-11-(2,6-difluoro-4-(2-(8-(oxetan-3-yl)-3,8-diazabicyclo[3.2.1]octan-3-yl)pyrimidin-5-yl)benzyl)-16,16,16-trifluoro-9-hydroxy-15,15-dimethyl-8-(4-((2-(8-(oxetan-3-yl)-3,8-diazabicyclo[3.2.1]octan-3-yl)pyrimidin-5-yl)ethynyl)benzyl)-3,6,13-trioxo-5-(1,1,1-trifluoro-2-methylpropan-2-yl)-2-oxa-4,7,11,12-tetraazahexadecan-14-yl)carbamate] | 8.27 | 0.14 | 0.53 | – | – | –
COC(=O)N[C@H](C(=O)N[C@@H](Cc1ccc(-c2ccc(N3CC4CCC(C3)N4C3COC3)nc2)cc1)[C@@H](O)CN(Cc1c(F)cc(-c2ccn(C3CC3)n2)cc1F)NC(=O)[C@@H](NC(=O)OC)C(C)(C)C(F)(F)F)C(C)(C)C(F)(F)F [Example 204, Methyl ((5S,8S,9S,14S)-11-(4-(1-cyclopropyl-1H-pyrazol-3-yl)-2,6-difluorobenzyl)-16,16,16-trifluoro-9-hydroxy-15,15-dimethyl-8-(4-(6-(8-(oxetan-3-yl)-3,8-diazabicyclo[3.2.1]octan-3-yl)pyridin-3-yl)benzyl)-3,6,13-trioxo-5-(1,1,1-trifluoro-2-methylpropan-2-yl)-2-oxa-4,7,11,12-tetraazahexadecan-14-yl)carbamate] | 8.50 | 0.19 | 0.48 | – | – | –
COC(=O)N[C@H](C(=O)N[C@@H](Cc1ccc(C#Cc2cnc(N3CCN(C4COC4)CC3)nc2)cc1)[C@@H](O)CN(Cc1c(F)cc(-c2ccn(C(F)F)n2)cc1F)NC(=O)[C@@H](NC(=O)OC)C(C)(C)C(F)(F)F)C(C)(C)C(F)(F)F [Example 87, methyl ((5S,8S,9S,14S)-11-(4-(1-(difluoromethyl)-1H-pyrazol-3-yl)-2,6-difluorobenzyl)-16,16,16-trifluoro-9-hydroxy-15,15-dimethyl-8-(4-((2-(4-(oxetan-3-yl)piperazin-1-yl)pyrimidin-5-yl)ethynyl)benzyl)-3,6,13-trioxo-5-(1,1,1-trifluoro-2-methylpropan-2-yl)-2-oxa-4,7,11,12-tetraazahexadecan-14-yl)carbamate] | – | – | – | 8.37 | 0.13 | 0.23
